The values that follow come from patent US6664273B2, “Piperidine based MCH antagonists for treatment of obesity and CNS disorders” (Schering Corporation, priority 2001, dated 2003).

The assay deals with T1, MCH receptor (Homo sapiens, UniProt Q99705).
T1 construct: expressed in transfected cells; host or cells: CHO cells
T1 sequence (Q99705 whole entry): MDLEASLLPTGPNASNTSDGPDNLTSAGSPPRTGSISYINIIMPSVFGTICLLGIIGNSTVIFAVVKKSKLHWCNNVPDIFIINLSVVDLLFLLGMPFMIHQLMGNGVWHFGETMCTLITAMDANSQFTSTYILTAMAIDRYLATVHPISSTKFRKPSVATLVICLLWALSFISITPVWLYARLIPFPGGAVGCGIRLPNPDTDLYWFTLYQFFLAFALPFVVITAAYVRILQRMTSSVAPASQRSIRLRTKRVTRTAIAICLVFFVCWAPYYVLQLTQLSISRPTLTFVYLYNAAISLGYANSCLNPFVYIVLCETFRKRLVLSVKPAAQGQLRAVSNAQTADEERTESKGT
In words: MCH Receptor Binding Assay. The note with it: [125I]-MCH, SPA, membranes from CHO cells expressing the MCH receptor. On the procedure:
Membranes from CHO cells expressing the MCH receptor were prepared by lysing cells with 5 mM HEPES for 15 min at 4C. Cell lysates were centrifuged ([…], 15 min) and the pellet was re-suspended in 5 mM HEPES. For each 96-well plate (Microlite, Dynex Technologies), 1 mg of cell membranes were incubated with 10 mg of wheat germ agglutinin SPA beads (Amersham) for 5 min at 4 C in a volume of 10 ml of binding buffer (25 mM HEPES, 10 mM MGCl2, 10 mM NaCl, 5 mM MnCl2, 0.1% BSA). The membrane/bead mixture was centrifuged (1500×g, 3.5 min), the supernatant was aspirated, and the pellet was re-suspended in 10 ml binding buffer. The centrifugation, aspiration and re-suspension were then repeated. The membrane/bead mixture (100 μl) was then added to 96-well plates containing 50 μl of 500 pM [^125I]-MCH (NEN) and […] of the appropriate concentration of compound (4× the desired final concentration). Nonspecific binding was determined by including 1 μM MCH in the binding reaction. The binding reaction was incubated at room temperature for 2 h. Plates were then analyzed in a TOPCOUNT microplate scintillation counter (Packard). Data was analyzed and Ki values were determined using GraphPad Prism.
By Ki is commonly meant a measure of affinity in units of concentration, obtained from inhibition or displacement. Read a low Ki as tighter binding. In the case of `N#Cc1cccc(-c2ccc(C3(NCC(=O)Nc4ccc(F)c(C(F)(F)F)c4)CCN(C4CCCC4)CC3)cc2)c1`, the Ki was found to be 16 nM.
The same measure for `CN(CC(=O)Nc1ccc(F)c(C(F)(F)F)c1)C1(c2ccc(-c3cccc(C#N)c3)cc2)CCN(C2CCCC2)CC1`: 18 nM.
`N#Cc1cccc(-c2ccc(C3(NCC(=O)Nc4ccc(F)c(Cl)c4)CCN(C4CCCC4)CC3)cc2)c1`: the Ki was 2.6 nM.
The same measure for `CN(CC(=O)Nc1ccc(F)c(Cl)c1)C1(c2ccc(-c3cccc(C#N)c3)cc2)CCN(C2CCCC2)CC1`: 4.2 nM; for `N#Cc1cccc(-c2ccc(C3(NCC(=O)Nc4ccc(Cl)c(C(F)(F)F)c4)CCN(C4CCCC4)CC3)cc2)c1`: 23 nM; for `CN(CC(=O)Nc1ccc(Cl)c(C(F)(F)F)c1)C1(c2ccc(-c3cccc(C#N)c3)cc2)CCN(C2CCCC2)CC1`: 16 nM.
Then `N#Cc1cccc(-c2ccc(C3(NCC(=O)Nc4cc(F)cc(F)c4)CCN(C4CCCC4)CC3)cc2)c1`, with 2.5 nM; and `CN(CC(=O)Nc1cc(F)cc(F)c1)C1(c2ccc(-c3cccc(C#N)c3)cc2)CCN(C2CCCC2)CC1`, with 6.2 nM.
Consider `N#Cc1cccc(-c2ccc(C3(N(CC(=O)Nc4cc(F)cc(F)c4)CC4CC4)CCN(C4CCCC4)CC3)cc2)c1`, for which the affinity, expressed as Ki, was 69 nM.
The same measure for `N#Cc1cccc(-c2ccc(C3(OCC(=O)Nc4cc(Cl)cc(Cl)c4)CCNCC3)cc2)c1`: 3.2 nM; for `CN1CCC(OCC(=O)Nc2cc(Cl)cc(Cl)c2)(c2ccc(-c3cccc(C#N)c3)cc2)CC1`: 4 nM.
The same measure for `N#Cc1cccc(-c2ccc(C3(OCC(=O)Nc4cc(Cl)cc(Cl)c4)CCN(CC4CC4)CC3)cc2)c1`: 1.8 nM; for `N#Cc1cccc(-c2ccc(C3(OCC(=O)Nc4cc(Cl)cc(Cl)c4)CCN(C4CCCC4)CC3)cc2)c1`: 2.2 nM.
The same measure for `CCN(CC(=O)Nc1ccc(F)c(Cl)c1)C1(c2ccc(-c3cccc(C#N)c3)cc2)CCN(C2CCCC2)CC1`: 10.6 nM; for `N#Cc1cccc(-c2ccc(C3(OCC(=O)Nc4ccc(F)c(Cl)c4)CCN(CC4CC4)CC3)cc2)c1`: 2 nM.
The compound `N#Cc1cccc(-c2ccc(C3(OCC(=O)Nc4ccc(Cl)c(C(F)(F)F)c4)CCN(CC4CC4)CC3)cc2)c1` yielded a Ki of 23 nM.
Then `O=C(CNC1(c2ccc(-c3cccc(OC(F)(F)F)c3)cc2)CCN(C2CCCC2)CC1)Nc1ccc(F)c(Cl)c1`, with 76 nM; and `CC(C)(C)OC(=O)N1CCC(NCC(=O)Nc2ccc(F)c(Cl)c2)(c2ccc(-c3cccc(C#N)c3)cc2)CC1`, with 56 nM; and `N#Cc1cccc(-c2ccc(C3(OCC(=O)Nc4cc(Cl)cc(Cl)c4)CCN(C4CCCCC4)CC3)cc2)c1`, with 19 nM.
Then `CC1CCC(N2CCC(OCC(=O)Nc3cc(Cl)cc(Cl)c3)(c3ccc(-c4cccc(C#N)c4)cc3)CC2)C1` (stereo not drawn), with 11 nM; and `N#Cc1cccc(-c2ccc(C3(OCC(=O)Nc4cc(Cl)cc(Cl)c4)CCN(C4CCOCC4)CC3)cc2)c1`, with 9 nM.
`N#Cc1cccc(-c2ccc(C3(OCC(=O)Nc4cc(Cl)cc(Cl)c4)CCN(C4CCSC4)CC3)cc2)c1` (stereo not drawn) displayed a Ki of 19 nM.
The same measure for `CC1CCC(C)CC(N2CCC(OCC(=O)Nc3cc(Cl)cc(Cl)c3)(c3ccc(-c4cccc(C#N)c4)cc3)CC2)C1` (stereo not drawn): 20 nM.
With `N#Cc1cccc(-c2ccc(C3(OCC(=O)Nc4cc(Cl)cc(Cl)c4)CCN(C4Cc5ccccc5C4)CC3)cc2)c1`, the Ki came out at 62 nM.
Then `COC1CCCC(CN2CCC(OCC(=O)Nc3cc(Cl)cc(Cl)c3)(c3ccc(-c4cccc(C#N)c4)cc3)CC2)O1` (stereo not drawn), with 20 nM.
For the compound `N#Cc1cccc(-c2ccc(C3(OCC(=O)Nc4cc(Cl)cc(Cl)c4)CCN(C4C5CCCC4CCC5)CC3)cc2)c1` (stereo not drawn), the Ki was found to be 48 nM.
Then `CC(C)C1CCC(N2CCC(OCC(=O)Nc3cc(Cl)cc(Cl)c3)(c3ccc(-c4cccc(C#N)c4)cc3)CC2)CC1` (stereo not drawn), with 19 nM.
`CC(=O)C1CCC(N2CCC(OCC(=O)Nc3cc(Cl)cc(Cl)c3)(c3ccc(-c4cccc(C#N)c4)cc3)CC2)CC1` (stereo not drawn) gave a Ki of 6 nM.
The same measure for `N#Cc1cccc(-c2ccc(C3(OCC(=O)Nc4cc(Cl)cc(Cl)c4)CCN(C4CCC5CCCCC5C4)CC3)cc2)c1` (stereo not drawn): 36 nM.
On to `N#Cc1cccc(-c2ccc(C3(OCC(=O)Nc4cc(Cl)cc(Cl)c4)CCN(C4CCC(C(F)(F)F)CC4)CC3)cc2)c1` (stereo not drawn), for which the affinity, expressed as Ki, was 49 nM.
Then `N#Cc1cccc(-c2ccc(C3(OCC(=O)Nc4cc(Cl)cc(Cl)c4)CCN(C4CCCC(C(F)(F)F)C4)CC3)cc2)c1` (stereo not drawn), with 86 nM; and `N#Cc1cccc(-c2ccc(C3(OCC(=O)Nc4cc(Cl)cc(Cl)c4)CCN(C4CCC(c5ccccc5)CC4)CC3)cc2)c1` (stereo not drawn), with 95 nM; and `CC(C)CCN1CCC(OCC(=O)Nc2cc(Cl)cc(Cl)c2)(c2ccc(-c3cccc(C#N)c3)cc2)CC1`, with 30 nM.
`CCC(C)CN1CCC(OCC(=O)Nc2cc(Cl)cc(Cl)c2)(c2ccc(-c3cccc(C#N)c3)cc2)CC1` (stereo not drawn) returned a Ki of 21 nM.
Then `N#Cc1cccc(-c2ccc(C3(OCC(=O)Nc4cc(Cl)cc(Cl)c4)CCN(Cc4cccs4)CC3)cc2)c1`, with 26 nM.
Then `N#Cc1cccc(-c2ccc(C3(OCC(=O)Nc4cc(Cl)cc(Cl)c4)CCN(Cc4ccsc4)CC3)cc2)c1`, with 27 nM; and `N#Cc1cccc(-c2ccc(C3(OCC(=O)Nc4cc(Cl)cc(Cl)c4)CCN(Cc4cccc(O)c4)CC3)cc2)c1`, with 19 nM; and `N#Cc1cccc(-c2ccc(C3(OCC(=O)Nc4cc(Cl)cc(Cl)c4)CCN(Cc4ccc(O)cc4)CC3)cc2)c1`, with 20 nM.
The compound `N#Cc1cccc(-c2ccc(C3(OCC(=O)Nc4cc(Cl)cc(Cl)c4)CCN(CCCc4ccccc4)CC3)cc2)c1` displayed a Ki of 50 nM.
Then `CC(CN1CCC(OCC(=O)Nc2cc(Cl)cc(Cl)c2)(c2ccc(-c3cccc(C#N)c3)cc2)CC1)c1ccccc1` (stereo not drawn), with 42 nM; and `COc1ccccc1CN1CCC(OCC(=O)Nc2cc(Cl)cc(Cl)c2)(c2ccc(-c3cccc(C#N)c3)cc2)CC1`, with 15 nM.
Regarding `COc1ccc(CN2CCC(OCC(=O)Nc3cc(Cl)cc(Cl)c3)(c3ccc(-c4cccc(C#N)c4)cc3)CC2)cc1`, the Ki worked out at 39 nM.
Then `CC(CCN1CCC(OCC(=O)Nc2cc(Cl)cc(Cl)c2)(c2ccc(-c3cccc(C#N)c3)cc2)CC1)c1ccccc1` (stereo not drawn), with 72 nM; and `O=C(CNC1(c2ccc(-c3cc(Cl)ccc3Cl)cc2)CCN(C2CCCC2)CC1)Nc1ccc(F)c(Cl)c1`, with 52 nM; and `CN(CC(=O)Nc1ccc(F)c(Cl)c1)C1(c2ccc(-c3cccc(C#N)c3)cc2)CCN(CCO)CC1`, with 10 nM.
Then `N#Cc1cccc(-c2ccc(C3(OCC(=O)Nc4ccc(Cl)c(C(F)(F)F)c4)CCN(CCO)CC3)cc2)c1`, with 48 nM.
For the compound `N#Cc1cccc(-c2ccc(C3(OCC(=O)Nc4ccc(Cl)c(C(F)(F)F)c4)CCN(C4CCCC4)CC3)cc2)c1`, the Ki was 49 nM.
The compound `N#Cc1cccc(-c2ccc(C3(OCC(=O)Nc4ccc(F)c(Cl)c4)CCN(CCO)CC3)cc2)c1` displayed a Ki of 8.2 nM.
Turning to `O=Cc1cccc(-c2ccc(C3(NCC(=O)Nc4ccc(F)c(Cl)c4)CCN(C4CCCC4)CC3)cc2)c1`, the Ki stood at 21 nM.
`O=C(CNC1(c2ccc(-c3cccc(-c4ncc[nH]4)c3)cc2)CCN(C2CCCC2)CC1)Nc1ccc(F)c(Cl)c1` showed a Ki of 8.3 nM.
Then `N#Cc1cccc(-c2ccc(C3(CCC(=O)Nc4cc(Cl)cc(Cl)c4)CCN(C4CCCC4)CC3)cc2)c1`, with 35.5 nM; and `N#Cc1cccc(-c2ccc(C3(CCC(=O)Nc4ccc(F)c(Cl)c4)CCN(C4CCCC4)CC3)cc2)c1`, with 26 nM; and `N#Cc1cccc(-c2ccc(C3(CCC(=O)Nc4cc(F)cc(F)c4)CCN(C4CCCC4)CC3)cc2)c1`, with 36 nM.
The compound `N#Cc1cccc(-c2ccc(C3(CCC(=O)Nc4ccc(F)c(F)c4)CCN(C4CCCC4)CC3)cc2)c1` returned a Ki of 15 nM.
Then `CC(C)(C)OC(=O)N1CCC(CCC(=O)Nc2ccc(F)c(F)c2)(c2ccc(-c3cccc(C#N)c3)cc2)CC1`, with 51 nM; and `N#Cc1cccc(-c2ccc(C3(CCC(=O)Nc4ccc(F)c(F)c4)CCNCC3)cc2)c1`, with 25 nM; and `N#Cc1cccc(-c2ccc(C3(CCC(=O)Nc4ccc(F)c(F)c4)CCN(CC4CC4)CC3)cc2)c1`, with 8 nM.
On to `N#Cc1cccc(-c2ccc(C3(CCC(=O)Nc4cc(Cl)cc(Cl)c4)CCN(CC4CC4)CC3)cc2)c1`, for which the Ki came to 27 nM.
The same measure for `N#Cc1cccc(-c2ccc(C3(CCC(=O)Nc4ccc(F)c(F)c4)CCN(C4CCC4)CC3)cc2)c1`: 19 nM.
The same measure for `N#Cc1cccc(-c2ccc(C3(CCC(=O)Nc4ccc(F)c(Cl)c4)CCN(CC4CC4)CC3)cc2)c1`: 34 nM.
Then `N#Cc1cccc(-c2ccc(C3(CCC(=O)Nc4cc(F)cc(F)c4)CCN(CC4CC4)CC3)cc2)c1`, with 31 nM.
Consider `N#Cc1cccc(-c2ccc(C3(CCC(=O)Nc4cc(F)cc(C(F)(F)F)c4)CCN(CC4CC4)CC3)cc2)c1`, for which the affinity corresponds to a Ki of 49 nM.
The same measure for `CC(=O)N1CCC(CCC(=O)Nc2ccc(F)c(F)c2)(c2ccc(-c3cccc(C#N)c3)cc2)CC1`: 61 nM; for `CCN(CC)C(=O)N1CCC(CCC(=O)Nc2ccc(F)c(F)c2)(c2ccc(-c3cccc(C#N)c3)cc2)CC1`: 45 nM.
The same measure for `N#Cc1cccc(-c2ccc(C3(CCC(=O)Nc4ccc(Cl)c(C(F)(F)F)c4)CCN(CC4CC4)CC3)cc2)c1`: 80 nM.
Then `N#Cc1cccc(-c2ccc(C3(CCC(=O)Nc4cccc(OC(F)(F)F)c4)CCN(CC4CC4)CC3)cc2)c1`, with 69 nM.
